From patent publication US20050234531A1, “Method to treat age-related macular degeneration” (priority 2001, published 2005)

System: age-related macular degeneration (AMD)
Assay: PDT with verteporfin combined with scatter threshold laser coagulation therapy in eighteen patients with AMD or early stage AMD
Assay type: in vivo
Description: Eighteen patients ranging in age from 50-80 years of age, and either previously diagnosed with AMD or with early stage AMD have been treated using the inventive method. All of these patients experienced at least some loss of vision pre-treatment.
For PDT, verteporfin was the photosensitive agent and was administered intravenously at a dose of 1-2 mg/kg. Verteporfin was activated using a coherent laser with the red beam (krypton) at a wavelength of 640 nm. For laser coagulation therapy, the spot size was 200 μm and the duration was 0.4 seconds. The number of spots applied was between 150 and 350. The interval between PDT and laser coagulation therapy was 5 minutes to 24 hours.

Cases of laser-induced neovascularizations (verteporfin PDT plus laser coagulation therapy, patients receiving the inventive treatment): no cases
Substance: verteporfin
Patients with improved visual acuity, as assessed by accurate reading of a standard vision chart (verteporfin 1-2 mg/kg intravenously, activated at 640 nm, plus laser coagulation therapy 5 minutes to 24 hours apart, within six to eight weeks post-treatment, 18 patients): fifty
Incidence of the need for retreatment (verteporfin PDT plus laser coagulation therapy, entire patient population treated): zero
Patients whose vision remained stable, assessed by no further loss of visual acuity (verteporfin PDT plus laser coagulation therapy, over six to nine months, 18 patients): fifty
